Reference: PMC10451632, “Site Mutation Improves the Expression and Antimicrobial Properties of Fungal Defense” (Antibiotics, 2023)
In brackets after ≈: the same amount, converted by molar mass. Entries after “also recorded” stand apart in the source; their conditions may differ. Bridge positions count the residues as written; N and C are the ends. Peptide text beside a SMILES is read from it.

Assays:
[1] = test system: Escherichia coli CVCC 195; assay: MIC, microtiter broth dilution; assay type: cell-based; details: MHB, 10^5 CFUs/mL, 16–18 h at 37 °C
Description: (§1) The MIC value of PN7 against bacteria was determined by the microtiter broth dilution method. Briefly, bacteria grown to the exponential phase were diluted into MHB; subsequently, 90 μL of bacterial suspension (10^5 CFUs/mL) was mixed with 10 μL of different concentrations of PN7 in a sterilized 96-well microtiter plate (Nunc). MIC values were recorded after incubation for 16–18 h at 37 °C based on the lowest concentrations of peptides in which no visible bacterial growth was observed.

[2] = test system: Pseudomonas aeruginosa CICC 20625; assay: MIC, microtiter broth dilution; assay type: cell-based; details: MHB, 10^5 CFUs/mL, 16–18 h at 37 °C
Description: as §1

S. agalactiae ATCC 13813 = assay: MIC, microtiter broth dilution; assay type: cell-based; details: MHB, 10^5 CFUs/mL, 16–18 h at 37 °C
Description: as §1

S. agalactiae CAU-FRI-4 = assay: MIC, microtiter broth dilution; assay type: cell-based; details: MHB, 10^5 CFUs/mL, 16–18 h at 37 °C
Description: as §1

S. enteritidis CVCC 3377 = assay: MIC, microtiter broth dilution; assay type: cell-based; details: MHB, 10^5 CFUs/mL, 16–18 h at 37 °C
Description: as §1

[3] = test system: S. epidermidis ATCC 35984; assay: MIC, microtiter broth dilution; assay type: cell-based; details: MHB, 10^5 CFUs/mL, 16–18 h at 37 °C
Description: as §1

S. hyicus 437-2 = assay: MIC, microtiter broth dilution; assay type: cell-based; details: MHB, 10^5 CFUs/mL, 16–18 h at 37 °C
Description: as §1

S. hyicus NCTC 10350 = assay: MIC, microtiter broth dilution; assay type: cell-based; details: MHB, 10^5 CFUs/mL, 16–18 h at 37 °C
Description: as §1

S. pullorum CVCC 1789 = assay: MIC, microtiter broth dilution; assay type: cell-based; details: MHB, 10^5 CFUs/mL, 16–18 h at 37 °C
Description: as §1

[4] = test system: Salmonella enterica ATCC 13076; assay: MIC, microtiter broth dilution; assay type: cell-based; details: MHB, 10^5 CFUs/mL, 16–18 h at 37 °C
Description: as §1

[5] = test system: Streptococcus. suis CVCC 606; assay: MIC, microtiter broth dilution; assay type: cell-based; details: MHB, 10^5 CFUs/mL, 16–18 h at 37 °C
Description: as §1

E. coli ATCC 25922 = assay: MIC, microtiter broth dilution; assay type: cell-based, Escherichia coli; details: MHB, 10^5 CFUs/mL, 16–18 h at 37 °C
Description: as §1

E. coli CVCC 1515 = assay: MIC, microtiter broth dilution; assay type: cell-based, Escherichia coli; details: MHB, 10^5 CFUs/mL, 16–18 h at 37 °C
Description: as §1

E. coli O157 = assay: MIC, microtiter broth dilution; assay type: cell-based, Escherichia coli; details: MHB, 10^5 CFUs/mL, 16–18 h at 37 °C
Description: as §1

[6] = test system: Gram-negative bacteria such as Escherichia coli, Salmonella, and Pseudomonas aeruginosa; assay: MIC against Gram-negative bacteria; assay type: cell-based; details: Gram-negative bacteria (Table 6)
Description: as §1

[7] = test system: mouse macrophages RAW264.7; assay: Cytotoxicity, MTT assay; assay type: cell-based
Description: The cytotoxicity of PN7 was evaluated by MTT (Beyotime, Shanghai, China) assay.

ICR mice = assay: In vivo toxicity, intraperitoneal injection; set-up: species or system mouse
Description: ICR mice (6–8 weeks old, male, n = 5 per group; Charles River, Beijing, China) were intraperitoneally injected with PN7 (10 mg/kg, body weight) for 6 days, and the changes in mice behavior and body weight were recorded. At the same time, blood and organ tissues were collected for whole-blood cell and biochemical index analysis and H.E. staining.

[8] = Thermal stability, MIC read-out; assay type: physicochemical; details: 1 h, 1280 μg/mL in physiological saline, triplicate
Description: PN7 dissolved in physiological saline solution was prepared into mother liquor with a concentration of 1280 μg/mL and incubated at different temperatures for 1 h. PN7 was dissolved in different pH buffers at 37 °C for 4 h. After double gradient dilution, MIC assays were used to detect the change in antibacterial activity.

S. aureus ATCC 43300 [9] = assay: Salt stability, MIC read-out; assay type: cell-based, Staphylococcus aureus
Description: The influence of ions on PN7 activity was determined in two ways.
The first method of operation: PN7 was prepared into 1280 μg/mL mother liquor supplemented with 50, 100, 200, 300, and 500 mM NaCl (or KCl, MgCl2, CaCl2), then was diluted twice gradient by ddH2O. Then, 10 μL was added into 90 μL bacterial solution and cultured for 16–18 h to determine the MIC.
The second method of operation: 10 μL peptide solution and 10 μL NaCl (or KCl, MgCl2, CaCl2) solution with different concentrations were added to 80 μL bacterial solution. The final concentration of ions in the whole system was 50, 100, 150, 200, and 250 mM. The MIC against S. aureus ATCC 43300 was determined.

S. aureus ATCC 43300 [10] = assay: Time-killing curves; assay type: cell-based, Staphylococcus aureus; details: for reduction of bacterial counts during the first two hours: initial inoculum 5.15 Log10 CFU/mL, MHB, 37 °C, 250 rpm, triplicate
Description: S. aureus ATCC 43300 was cultured to the logarithmic stage, MHB medium was used for adjusting the concentration of bacterial suspension, and PN7 (1×, 2× and 4× MIC), Plectasin (1×, 2× and 4× MIC) and 2× MIC vancomycin (the MIC was 1 μg/mL) were added into the suspensions containing 10^5 CFU/mL bacteria (after the count of viable bacteria detection, the initial inoculation amount was 5.15 Log10 CFU/mL), cultured at 37 °C and 250 rpm. A 100 CFU/mL is considered the detection limit. […] In contrast, the count was reduced by 1.6 Log10 CFU/mL after treatment with 2× MIC vancomycin, an approximately 66% population decrease of target pathogens compared with the PN7 treatment group at the same time point of the second hour. After 4 h, the colony number of the peptide treatment group was almost 0, while that of the vancomycin treatment group was 0 after 8 h, at 4 h later than the PN7 treatment. At 24 h, the number of colonies of only 1× MIC Plectasin treatment group rebounded, while no such phenomenon occurred in the other treatment groups.
S. aureus ATCC 43300 was cultured to the logarithmic stage. MHB medium adjusted the concentration of bacterial suspension, and PN7 (1×, 2× and 4× MIC) was added into the suspensions containing 10^5 CFU/mL bacteria, cultured at 37 °C and 250 rpm. 1×, 2×, 4× MIC Plectasin and 2× MIC vancomycin were used as positive controls, and the group treated without antibiotics was used as the blank controls. Then, 100 μL samples were taken at different time points and were continuously diluted and coated on MHA medium for colony counting. A 100 CFU/mL is considered the detection limit.

[11] = 10 mg/kg daily intraperitoneal injection for 6 days, n = 5 per group

CC[C@H](C)[C@@H]1NC(=O)[C@H](CO)NC(=O)[C@H](CCCCN)NC(=O)[C@@H]2CSSC[C@@H](C(=O)N[C@@H](Cc3ccc(O)cc3)C(=O)O)NC(=O)[C@H](CCCCN)NC(=O)[C@@H]3CSSC[C@H](NC(=O)[C@H](CCCNC(=N)N)NC(=O)CNC(=O)[C@H](CC(=O)O)NC(=O)[C@H](CC(=O)O)NC(=O)[C@H](CCC(=O)O)NC(=O)[C@H](Cc4ccc(O)cc4)NC(=O)[C@H](Cc4c[nH]c5ccccc45)NC(=O)[C@@H]4CCCN4C(=O)CNC(=O)[C@H](CC(N)=O)NC(=O)[C@@H](NC(=O)CNC(=O)[C@H](Cc4ccccc4)NC(=O)CN)CSSC[C@H](NC(=O)[C@H](Cc4ccc(O)cc4)NC(=O)CNC(=O)CNC(=O)[C@H](CCCCN)NC(=O)[C@H](Cc4ccc(O)cc4)NC(=O)CNC(=O)[C@H](CCCCN)NC1=O)C(=O)N[C@@H](C)C(=O)N[C@@H](CCCCN)C(=O)NCC(=O)NCC(=O)N[C@@H](Cc1ccccc1)C(=O)N[C@@H](C(C)C)C(=O)N3)C(=O)N[C@@H](Cc1c[nH]cn1)C(=O)N[C@@H](CC(N)=O)C(=O)N[C@@H](Cc1c[nH]cn1)C(=O)N2 [PN7] (H-GFGCNGPWYEDDGRCHNHCKSIKGYKGGYCAKGGFVCKCY-OH; disulfide 4-30, 15-37, 19-39 (inferred); N-terminus and C-terminus assumed)
MIC [1]: >128 µg/mL | MIC [2]: >128 µg/mL | MIC (S. agalactiae ATCC 13813): 2 µg/mL (≈ 0.454 µM) | MIC (S. agalactiae CAU-FRI-4): 1 µg/mL (≈ 0.227 µM) | MIC (S. enteritidis CVCC 3377): >128 µg/mL | MIC [3]: 16 µg/mL (≈ 3.63 µM) | MIC (S. hyicus 437-2): 8 µg/mL (≈ 1.82 µM) | MIC (S. hyicus NCTC 10350): 4 µg/mL (≈ 0.908 µM) | MIC (S. pullorum CVCC 1789): >128 µg/mL | MIC [4]: >128 µg/mL | MIC [5]: 1 µg/mL (≈ 0.227 µM) | MIC (E. coli ATCC 25922): >128 µg/mL | MIC (E. coli CVCC 1515): >128 µg/mL | MIC (E. coli O157): >128 µg/mL | MIC [6]: over 128 μg/mL | survival ([7]; RAW264.7 and HaCaT cells (Figure 6B,C), 128 μg/mL): > 85% | cell viability ([7]; RAW264.7 cells, MTT, at 128 mg/mL (so in the source)): 92.77% | histological morphology of mouse organs (H&E) (ICR mice; [11]): showed no difference | murine behavior and body weight (ICR mice; [11]): did not observe a change in murine behavior or the loss of body weight | toxicity to mice, overall (ICR mice; intraperitoneal injection for 6 d, observation 1 week): no toxicity; also recorded: no significant differences compared with the control group | thermal stability (antibacterial activity) ([8]; 20–80 °C): stable | decrease of antibacterial activity ([8]; 100 °C): 1 fold | influence of monovalent cations (Na+ and K+) on activity (S. aureus ATCC 43300 [9]; NaCl or KCl, MIC against S. aureus ATCC 43300): no influence | MIC value after incubation with different ions (S. aureus ATCC 43300 [9]; mother liquor with 50–500 mM salt, then diluted with ddH2O): did not change | reduction of bacterial counts during the first two hours (S. aureus ATCC 43300 [10]; 1× MIC): 2.25 Log10 CFU/mL | reduction of bacterial counts during the first two hours (S. aureus ATCC 43300 [10]; 2× MIC): 2.42 Log10 CFU/mL | reduction of bacterial counts during the first two hours (S. aureus ATCC 43300 [10]; 4× MIC): 2.72 Log10 CFU/mL | time to kill 99% of S. aureus ATCC 43300 (S. aureus ATCC 43300 [10]; time-kill, 2× MIC): ≤ 2 h
